According to US20260285853A1, “COMPOUNDS AND METHODS FOR MODULATING SPLICING” (REMIX THERAPEUTICS INC., priority 2023, published 2026):
Read-outs that look alike come from different tables or passages of the source.

Experiments:
Type in all cases: cell-based
MYB mRNA [1] = assay: Splicing RT-qPCR assay (THP), Table 2A
HTT mRNA [2] = assay: Splicing RT-qPCR assay (THP), Table 2A
MYB mRNA [3] = assay: Gene panel canonical junction qPCR assay, decrease in CJ mRNA, Table 3
Procedure, shortened: (§1)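 A673 cells were plated, left to adhere for 24 h, then dosed; K562 cells were plated in 96- or 384-well format and dosed directly. Both were incubated 24 h at 37 °C with an 11-point 3-fold series (top 10 uM final). Canonical junction mRNA was then read by cDNA synthesis and qPCR.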

HTT mRNA [4] = assay: as above
Procedure, shortened: as §1

[5] = system: SH-SY5Y (human neuroblastoma) cells; assay: Cell viability, Cell Titer Glo 2.0 assay; settings: read-out: Viability SHSY5Y.3 GI50
Procedure, shortened: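 SH-SY5Y neuroblastoma cells are exposed to test compounds for 72 hours at 37 °C and 5% CO2, with final DMSO held at 0.1%. Cell viability is then measured with the CellTiter-Glo 2.0 assay.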

[6] = Table 2A (THP), AJ mRNA increase, read-out: MYB AJ (increase in alternative junction mRNA, AC50)
[7] = Table 2A (THP), CJ mRNA decrease, read-out: MYB CJ (decrease in canonical junction mRNA, IC50)
[8] = Table 2A (THP), AJ mRNA increase, read-out: HTT AJ (increase in alternative junction mRNA, AC50)
[9] = Table 2A (THP), CJ mRNA decrease, read-out: HTT CJ (decrease in canonical junction mRNA, IC50)
[10] = decrease in canonical junction (CJ) mRNA, gene panel qPCR, Table 3
[11] = Table 2A, THP, MYB alternative junction (AJ) mRNA, read-out: MYB AJ (AC50, increase in alternative junction mRNA)
[12] = Table 2A, THP, MYB canonical junction (CJ) mRNA, read-out: MYB CJ (IC50, decrease in canonical junction mRNA)
[13] = Table 2A, THP, HTT alternative junction (AJ) mRNA, read-out: HTT AJ (AC50, increase in alternative junction mRNA)
[14] = Table 2A, THP, HTT canonical junction (CJ) mRNA, read-out: HTT CJ (IC50, decrease in canonical junction mRNA)
[15] = decrease in CJ mRNA levels, canonical junction qPCR, gene panel

Compound | AC50 (MYB mRNA [1]; [6]) | IC50 (MYB mRNA [1]; [7]) | AC50 (HTT mRNA [2]; [8]) | IC50 (HTT mRNA [2]; [9]) | IC50 (MYB mRNA [3]; [10]) | IC50 (HTT mRNA [4]; [10]) | GI50 [5] | AC50 (MYB mRNA [1]; [11]) | IC50 (MYB mRNA [1]; [12]) | AC50 (HTT mRNA [2]; [13]) | IC50 (HTT mRNA [2]; [14]) | IC50 (MYB mRNA [3]; [15]) | IC50 (HTT mRNA [4]; [15])
Cc1cn2cc(NC(=O)c3c(C)cc(N4CCC(NC5CC5)CC4)c4cn(C)nc34)nc2c(C)n1 [Compound 473, 4-[4-(cyclopropylamino)-1-piperidyl]-N-(6,8-dimethylimidazo[1,2-a]pyrazin-2-yl)-2,6-dimethyl-indazole-7-carboxamide] | > 10 µM | > 10 µM | > 10 µM | > 10 µM | > 10 µM | > 10 µM | > 10 µM |  |  |  |  |  | 
CNC1CCN(c2cc(F)c(C(=O)Nc3cn4cc(C)nc(C)c4n3)c3nn(C)cc23)CC1 [Compound 342, N-(6,8-dimethylimidazo[1,2-a]pyrazin-2-yl)-6-fluoro-2-methyl-4-[4-(methylamino)-1-piperidyl]-indazole-7-carbox-amide] | < 0.1 µM | < 0.1 µM | 1 to 10 µM | 1 to 10 µM | < 0.1 µM | 1 to 10 µM | 1 to 10 µM |  |  |  |  |  | 
Cn1cc2cc(NC(=O)c3ccc(N4CCC(NC5CC5)CC4)c4cn(C)nc34)cc(CNc3cn[nH]c3)c2n1 [Compound 883] |  |  |  |  |  |  | > 10 µM | 1 to 10 µM | 1 to 10 µM | > 10 µM | > 10 µM | 1 to 10 µM | > 10 µM
COc1cc2nn(C)cc2cc1NC(=O)c1c(F)cc(N2CC3(CNC3)C2)c2cn(C)nc12 [Compound 455, 4-(2,6-diazaspiro[3.3]-heptan-2-yl)-6-fluoro-N-(6-methoxy-2-methyl-indazol-5-yl)-2-methyl-indazole-7-carboxamide] | 1 to 10 µM | 1 to 10 µM | > 10 µM | > 10 µM | 1 to 10 µM | > 10 µM | > 10 µM |  |  |  |  |  | 
COc1nc2c(C(=O)Nc3cc(CNS(C)(=O)=O)c4nc(C)cn4c3)ccc(N3CCC(NC4CC4)CC3)c2s1 [Compound 855] |  |  |  |  |  |  | 1 to 10 µM | 1 to 10 µM | 1 to 10 µM | 1 to 10 µM | 1 to 10 µM | 1 to 10 µM | 1 to 10 µM
Cn1cc2cc(NC(=O)c3ccc(N4CCC(NC5CC5)CC4)c4cn(C)nc34)cc(CCNS(C)(=O)=O)c2n1 [Compound 840] |  |  |  |  |  |  | > 10 µM | 1 to 10 µM | 1 to 10 µM | > 10 µM | 1 to 10 µM | 1 to 10 µM | 1 to 10 µM
CCNC1CCN(c2cc(F)c(C(=O)Nc3cn4cc(C#N)nc(C)c4n3)c3nn(C)cc23)CC1 [Compound 359, N-(6-cyano-8-methyl-imidazo-[1,2-a]pyrazin-2-yl)-4-[4-(ethylamino)-1-piperidyl]-6-fluoro-2-methyl-indazole-7-carboxamide] | 0.1 to 1 µM | 0.1 to 1 µM | 0.1 to 1 µM | 0.1 to 1 µM | 0.1 to 1 µM | 0.1 to 1 µM | 0.1 to 1 µM |  |  |  |  |  | 
CCNC1CCN(c2ccc(C(=O)Nc3ccn(-c4ccncn4)n3)c3nn(C)cc23)CC1 [Compound 363, 4-(4-(ethylamino)-piperidin-1-yl)-2-methyl-N-(1-(pyrimidin-4-yl)-1H-pyrazol-3-yl)-2H-indazole-7-carboxamide 2,2,2-trifluoroacetate] | > 10 µM | > 10 µM | > 10 µM | > 10 µM | > 10 µM | > 10 µM | > 10 µM |  |  |  |  |  | 
Cc1cn2cc(NC(=O)c3ccc(N4CCC(NC5CC5)CC4)c4cn(C)nc34)c(F)c2c(C)n1 [Compound 478, 4-[4-(cyclopropyl-amino)-1-piperidyl]-N-(8-fluoro-1,3-dimethyl-pyrrolo[1,2-a]-pyrazin-7-yl)-2-methyl-indazole-7-carboxamide] | > 10 µM | > 10 µM | > 10 µM | > 10 µM | > 10 µM | > 10 µM | 1 to 10 µM |  |  |  |  |  | 
Cc1cn2cc(NC(=O)c3ccc(N4C[C@H](C)N[C@@H](C)C4)c4cn(C)nc34)nc2c(C)n1 [Compound 549] | 1 to 10 µM | 1 to 10 µM | > 10 µM | > 10 µM | 1 to 10 µM | > 10 µM | > 10 µM |  |  |  |  |  | 
